# Assay results as given in PubChem BioAssay (NCI).
#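 GI50 marks 50% less growth. TGI: concentration producing complete growth inhibition.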
# What was measured:
# Assay in all cases: growth of human tumour cells (NCI), 384-well format
# [1] = test system: A498 renal
# [2] = test system: M14 melanoma
# [3] = test system: MDA-MB-468 breast
# [4] = test system: A549 NSCLC
# [5] = test system: NCI-H522 lung
# [6] = test system: MCF7 breast
# [7] = test system: OVCAR-3 ovarian
# [8] = test system: PC-3 prostate
# [9] = test system: MDA-MB-435 melanoma
# [10] = test system: COLO 205 colon
# [11] = test system: HOP-92 NSCLC
# [12] = test system: DU-145 prostate
# [13] = test system: MDA-MB-231 breast
# [14] = test system: OVCAR-5 ovarian
# [15] = test system: LOX IMVI melanoma
# [16] = test system: RPMI-8226 leukemia
# [17] = test system: SK-OV-3 ovarian
# [18] = test system: SF-295 CNS
# [19] = test system: KM12 colon
# [20] = test system: SW-620 colon
# [21] = test system: MALME-3M melanoma
# [22] = test system: SF-539 CNS
# [23] = test system: SR leukemia
# [24] = test system: HL-60(TB) leukemia
# [25] = test system: U251 glioblastoma
# [26] = test system: TK-10 renal
# [27] = test system: SK-MEL-28 melanoma
# [28] = test system: NCI/ADR-RES ovarian
# [29] = test system: NCI-H322M lung
# [30] = test system: HT29 colon
# [31] = test system: UACC-62 melanoma
# [32] = test system: BT-549 breast
# [33] = test system: SNB-75 CNS
# [34] = test system: NCI-H226 lung
# [35] = test system: HS 578T breast
# [36] = test system: CAKI-1 renal
# [37] = test system: HCT-116 colon
# [38] = test system: NCI-H460 NSCLC
# [39] = test system: UO-31 renal
# [40] = test system: SF-268 CNS
# [41] = test system: T-47D breast
# [42] = test system: HCT-15 colon
# [43] = test system: OVCAR-4 ovarian
# [44] = test system: NCI-H23 lung
# [45] = test system: HOP-62 NSCLC
# [46] = test system: SN12C renal
# [47] = test system: MOLT-4 leukemia
# [48] = test system: OVCAR-8 ovarian
# [49] = test system: SNB-19 CNS
# [50] = test system: SK-MEL-5 melanoma
# [51] = test system: EKVX NSCLC
# [52] = test system: UACC-257 melanoma
# [53] = test system: 786-0 renal
# [54] = test system: HCC-2998 colon
# [55] = test system: IGROV1 ovarian
# [56] = test system: RXF 393 renal
# [57] = test system: CCRF-CEM leukemia
# [58] = test system: ACHN renal
structure (smiles),measurement,setting,value
CS(=O)(=O)c1ccc(Oc2cc(F)cc(C#N)c2)c2c1[C@H](O)[C@H](F)[C@@H]2F,GI50,[1],> 100 µM
same,TGI,[1],> 100 µM
same,GI50,[2],> 100 µM
same,TGI,[2],> 100 µM
same,GI50,[3],> 100 µM
same,TGI,[3],> 100 µM
same,GI50,[4],> 100 µM
same,TGI,[4],> 100 µM
same,GI50,[5],> 100 µM
same,TGI,[5],> 100 µM
same,GI50,[6],> 100 µM
same,TGI,[6],> 100 µM
same,GI50,[7],> 100 µM
same,TGI,[7],> 100 µM
same,GI50,[8],> 100 µM
same,TGI,[8],> 100 µM
same,GI50,[9],> 100 µM
same,TGI,[9],> 100 µM
same,GI50,[10],> 100 µM
same,TGI,[10],> 100 µM
same,GI50,[11],> 100 µM
same,TGI,[11],> 100 µM
same,GI50,[12],> 100 µM
same,TGI,[12],> 100 µM
same,GI50,[13],> 100 µM
same,TGI,[13],> 100 µM
same,GI50,[14],> 100 µM
same,TGI,[14],> 100 µM
same,GI50,[15],> 100 µM
same,TGI,[15],> 100 µM
same,GI50,[16],> 100 µM
same,TGI,[16],> 100 µM
same,GI50,[17],> 100 µM
same,TGI,[17],> 100 µM
same,GI50,[18],> 100 µM
same,TGI,[18],> 100 µM
same,GI50,[19],> 100 µM
same,TGI,[19],> 100 µM
same,GI50,[20],> 100 µM
same,TGI,[20],> 100 µM
same,GI50,[21],> 100 µM
same,TGI,[21],> 100 µM
same,GI50,[22],> 100 µM
same,TGI,[22],> 100 µM
same,GI50,[23],> 100 µM
same,TGI,[23],> 100 µM
same,GI50,[24],> 100 µM
same,TGI,[24],> 100 µM
same,GI50,[25],> 100 µM
same,TGI,[25],> 100 µM
same,GI50,[26],> 100 µM
same,TGI,[26],> 100 µM
same,GI50,[27],> 100 µM
same,TGI,[27],> 100 µM
same,GI50,[28],> 100 µM
same,TGI,[28],> 100 µM
same,GI50,[29],> 100 µM
same,TGI,[29],> 100 µM
same,GI50,[30],> 100 µM
same,TGI,[30],> 100 µM
same,GI50,[31],> 100 µM
same,TGI,[31],> 100 µM
same,GI50,[32],> 100 µM
same,TGI,[32],> 100 µM
same,GI50,[33],> 100 µM
same,TGI,[33],> 100 µM
same,GI50,[34],> 100 µM
same,TGI,[34],> 100 µM
same,GI50,[35],> 100 µM
same,TGI,[35],> 100 µM
same,GI50,[36],> 100 µM
same,TGI,[36],> 100 µM
same,GI50,[37],> 100 µM
same,TGI,[37],> 100 µM
same,GI50,[38],> 100 µM
same,TGI,[38],> 100 µM
same,GI50,[39],> 100 µM
same,TGI,[39],> 100 µM
same,GI50,[40],> 100 µM
same,TGI,[40],> 100 µM
same,GI50,[41],> 100 µM
same,TGI,[41],> 100 µM
same,GI50,[42],> 100 µM
same,TGI,[42],> 100 µM
same,GI50,[43],> 100 µM
same,TGI,[43],> 100 µM
same,GI50,[44],> 100 µM
same,TGI,[44],> 100 µM
same,GI50,[45],> 100 µM
same,TGI,[45],> 100 µM
same,GI50,[46],> 100 µM
same,TGI,[46],> 100 µM
same,GI50,[47],> 100 µM
same,TGI,[47],> 100 µM
same,GI50,[48],> 100 µM
same,TGI,[48],> 100 µM
same,GI50,[49],> 100 µM
same,TGI,[49],> 100 µM
same,GI50,[50],> 100 µM
same,TGI,[50],> 100 µM
same,GI50,[51],> 100 µM
same,TGI,[51],> 100 µM
same,GI50,[52],> 100 µM
same,TGI,[52],> 100 µM
same,GI50,[53],> 100 µM
same,TGI,[53],> 100 µM
same,GI50,[54],> 100 µM
same,TGI,[54],> 100 µM
same,GI50,[55],> 100 µM
same,TGI,[55],> 100 µM
same,GI50,[56],> 100 µM
same,TGI,[56],> 100 µM
same,GI50,[57],> 100 µM
same,TGI,[57],> 100 µM
same,GI50,[58],> 100 µM
same,TGI,[58],> 100 µM
